Here are results for two compounds from patent US20060014673A1 (priority 1998, published 2006).

Like-named read-outs stand apart in the source and are kept apart here.

Assay [1] deals with Primary cultures of neonatal rat cortex. In kind it is cell-based.
The test system is the same in assay [2]. In kind it is cell-based. This is another data set of the same source.

With `Nc1ccncc1` [4-AP, 4-aminopyridine], the “effect on intracellular calcium” value is recorded as “induces an increase in intracellular calcium” in assay [1] (depolarized conditions (aconitine), substance alone) and “significant effect” in assay [2]. For the same compound, the “potency in non-depolarized compared with depolarized cultures” value in assay [2] is reported as “slightly less potent”.

dendrotoxin: the “effect on intracellular calcium” value in assay [1] is listed as “caused an increase in intracellular calcium”.
